Structures can show the parent of a compound that is named as a salt.
System: amphetamine-induced symptoms
Assay: antagonism of amphetamine-induced symptoms (cage movement) in rats
Type: in vivo
Details: test compound i.p., 1 hr., d-amphetamine sulfate 5 mg./kg. i.p. given 1 hr. after compound, rated one hour after amphetamine
Description: The tranquilizing agents of the present invention are characterized by relief of such schizophrenic manifestations in humans as hallucinations, hostility, suspiciousness, emotional or social withdrawal, anxiety, agitation and tension. Standard procedures of detecting and comparing tranquilizing activity of compounds in this series and for which there is an excellent correlation with human efficacy is the antagonism of amphetamine-induced symptoms in rats test, as taught by A. Weissman, et al., J. Pharmacol. Exp. Ther., 151, 339 (1966) and by Quinton, et al., Nature, 200, 178 (1963).
The effects of the compounds of the present invention on prominent amphetamine-induced symptoms were studied in rats by a rating scale modeled after the one reported by Quinton and Halliwell and by Weissman. Groups of five rats were placed in a covered plastic cage measuring approximately 26 × 42 × 16 cm. After a brief period of acclimation in the cage, the rats in each group were treated intraperitoneally (i.p.) with the test compound. […] On the basis of dose-response data after amphetamine it was possible to determine the effective dose of the compound necessary to antagonize or block the characteristic amphetamine behavior of cage movement for fifty percent of the rats tested (ED50). […]

Structure (SMILES) | ED50 (effective dose to antagonize or block the characteristic amphetamine behavior of cage movement for fifty percent of the rats tested)
Fc1ccc(SCCCN2CCc3c(c4cc(F)ccc4n3-c3ccc(F)cc3)C2)cc1 [F F F 0, 8-Fluoro-5-(p-fluorophenyl)-2-[3-(p-fluorophenylthio)propyl]-1,2,3,4-tetrahydro-γ-carboline hydrochloride] | 32 mg/kg
[O-][S+](CCCN1CCc2c(c3cc(F)ccc3n2-c2ccc(F)cc2)C1)c1ccc(F)cc1 (centres unmarked) [F F F 1, 8-fluoro-5-(p-fluorophenyl)-2-[3-(p-fluorophenylsulfinyl)propyl]-1,2,3,4-tetrahydro-γ-carboline hydrochloride] | 10 mg/kg
